Here are results for five compounds from ChEMBL document CHEMBL1201862, “PubChem BioAssay data set” (2004).

Activity calls are given as the source filed them.

Assay [1] deals with T1, Low molecular weight phosphotyrosine protein phosphatase (Homo sapiens, UniProt P24666).
T1 sequence (P24666 whole entry): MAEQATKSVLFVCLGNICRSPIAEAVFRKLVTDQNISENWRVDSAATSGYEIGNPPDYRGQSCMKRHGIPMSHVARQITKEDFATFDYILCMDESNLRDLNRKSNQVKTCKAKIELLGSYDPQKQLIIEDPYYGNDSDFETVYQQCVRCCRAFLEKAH
The assay can be described thus: inhibition of LMPTP-A enzymatic activity – biochemical, OMFP substrate, fluorescence intensity, set 2, dose response (AID 743307). The format is functional.

In assay [2] the target is T1, Low molecular weight phosphotyrosine protein phosphatase. Put plainly: inhibition of human LMPTP enzyme activity – biochemical, absorbance, pNPP substrate, LMPTP-A isoform, set 2, orthogonal assay, dose response (AID 743308). The format is functional.
Assay [3] deals with Glutathione-S-transferase (Schistosoma japonicum, UniProt Q26513). The assay can be described thus: GST-antibody interaction or FRET quenching – biochemical, TR-FRET, artefact control for Vif-APOBEC3G degradation inhibitor project, dose response (AID 1117362). The format is functional. (In general: TR-FRET usually uses a lanthanide donor and a delayed reading to cut background.)
Sequence of Glutathione-S-transferase (Q26513 whole entry): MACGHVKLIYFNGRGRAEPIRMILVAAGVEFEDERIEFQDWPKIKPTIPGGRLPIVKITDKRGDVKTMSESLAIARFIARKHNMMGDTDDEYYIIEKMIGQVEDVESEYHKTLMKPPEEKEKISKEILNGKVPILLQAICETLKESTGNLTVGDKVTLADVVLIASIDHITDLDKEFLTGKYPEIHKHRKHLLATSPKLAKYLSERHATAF

The test system of the next assay is Vero. Put plainly: viability of Vero cells under compound – cytotoxicity control for flavivirus capping enzyme inhibitors (AID 588742). The format is functional. Particulars: Chlorocebus sabaeus.
The nature of assay [4]: cells. Type of assay: functional, cell-based.
The nature of assay [5]: cells. Type of assay: functional, cell-based. This is another data set of the same source.
Assay [6] has as its target T2, Mannose-6-phosphate isomerase (Homo sapiens, UniProt P34949).
T2 sequence (P34949 whole entry): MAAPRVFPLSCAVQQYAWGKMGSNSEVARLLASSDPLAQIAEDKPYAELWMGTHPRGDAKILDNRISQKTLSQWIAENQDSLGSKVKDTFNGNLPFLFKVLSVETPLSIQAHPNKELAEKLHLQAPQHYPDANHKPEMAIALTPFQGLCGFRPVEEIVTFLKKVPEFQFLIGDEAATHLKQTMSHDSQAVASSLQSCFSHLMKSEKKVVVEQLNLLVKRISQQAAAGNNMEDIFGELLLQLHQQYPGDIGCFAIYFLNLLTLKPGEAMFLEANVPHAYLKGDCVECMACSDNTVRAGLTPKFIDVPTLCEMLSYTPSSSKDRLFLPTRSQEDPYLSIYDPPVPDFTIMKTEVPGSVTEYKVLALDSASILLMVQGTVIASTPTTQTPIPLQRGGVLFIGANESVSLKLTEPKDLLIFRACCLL
The assay can be described thus: MPI inhibition at elevated mannose 6-phosphate – biochemical, fluorescence intensity, high mannose 6-phosphate, primary screen (AID 1220).

For assay [7], the target named is E3 ubiquitin-protein ligase Mdm2 (Homo sapiens, UniProt Q00987). The assay can be described thus: MDM2-luc reporter signal enhancers, multi-concentration potency testing, MDM2 ubiquitin-protein ligase inhibitor program, whole-cell format, luminescence detection, 384-well microplate (AID 1394).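 Further: MDM2 E3 inhibitors raise luminescence so EC50 is for signal enhancement.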 The format is functional.
Sequence of E3 ubiquitin-protein ligase Mdm2 (Q00987 whole entry): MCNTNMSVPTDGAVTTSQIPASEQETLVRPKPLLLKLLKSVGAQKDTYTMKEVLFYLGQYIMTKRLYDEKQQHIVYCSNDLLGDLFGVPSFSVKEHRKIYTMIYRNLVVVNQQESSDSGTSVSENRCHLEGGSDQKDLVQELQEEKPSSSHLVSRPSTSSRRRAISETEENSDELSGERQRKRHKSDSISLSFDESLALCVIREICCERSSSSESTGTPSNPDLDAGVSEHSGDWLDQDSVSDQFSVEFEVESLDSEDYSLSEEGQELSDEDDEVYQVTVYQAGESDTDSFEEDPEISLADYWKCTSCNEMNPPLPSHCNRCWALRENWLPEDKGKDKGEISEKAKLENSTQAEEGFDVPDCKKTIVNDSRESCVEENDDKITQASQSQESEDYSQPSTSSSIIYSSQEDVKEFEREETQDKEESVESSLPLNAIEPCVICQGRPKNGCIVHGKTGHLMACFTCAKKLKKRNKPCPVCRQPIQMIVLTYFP
Assay [8] has as its target T3, Trace amine-associated receptor 1 (Homo sapiens, UniProt Q96RJ0).
T3 sequence (Q96RJ0 whole entry): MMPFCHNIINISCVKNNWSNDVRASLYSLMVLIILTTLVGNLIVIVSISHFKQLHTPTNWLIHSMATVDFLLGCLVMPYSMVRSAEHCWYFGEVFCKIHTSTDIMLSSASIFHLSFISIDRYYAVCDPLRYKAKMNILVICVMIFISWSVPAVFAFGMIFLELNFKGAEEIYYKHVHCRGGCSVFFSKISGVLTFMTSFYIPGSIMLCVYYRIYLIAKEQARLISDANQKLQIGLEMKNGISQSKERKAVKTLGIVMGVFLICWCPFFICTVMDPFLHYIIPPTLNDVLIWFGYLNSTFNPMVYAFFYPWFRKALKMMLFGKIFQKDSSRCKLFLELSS
Put plainly: Counterscreen for agonists of the human trace amine associated receptor 1 (hTAAR1): Fluorescence-based cell-based high throughput dose response assay to identify hTAAR1 agonist that also desensitize TAAR1 receptor response. Type of assay: functional. For orientation: The purpose of a counterscreen is to sort out artefacts and off-target activity.

The target of assay [9] is T3, Trace amine-associated receptor 1. The assay can be described thus: Fluorescence-based cell-based high throughput dose response assay to identify agonists of the human trace amine associated receptor 1 (TAAR1). The format is functional.
Another assay has as its target Transthyretin (Homo sapiens, UniProt P02766). Put plainly: Luminescence-based cell-based high throughput dose response assay to identify activators of Transthyretin (TTR) transcription. Type of assay: functional.
Assay [10] can be described thus: OVCAR-3 cell viability loss – plate reader, dry powder samples, PAX8 inhibitor project, dose response (AID 743044). The format is functional, cell-based.
A short description of assay [11]: alpha-synuclein stem-loop translation blockers – luminescence, H4 neuroglioblastoma cells, dose confirmation, confirmation (AID 2454).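 Further: H4 neuroglioblastoma cells carrying an alpha-synuclein 5'UTR luciferase reporter; potency for inhibition of the luciferase signal.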 Type of assay: functional, cell-based.
The nature of assay [12]: PAX5 cellular inhibition readout – cell-based, plate reader, dry powder samples, selectivity assay for PAX8 inhibitor project, dose response (AID 743047).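 Further: HEK293 cells carrying a Pax5 driven CD19 promoter luciferase reporter.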 The format is functional.
Assay [13] has as its system BJ. The assay can be described thus: cells. Type of assay: functional, cell-based. Particulars: Homo sapiens.
A short description of assay [14]: OVCAR4 cell viability loss – plate reader, dry powder, SA11, cytotoxicity control for PAX8 inhibitor project, dose response (AID 743150). The format is functional, cell-based. As to conditions: OVCAR-4.
The nature of assay [15]: cells. The format is functional, cell-based. This is another data set of the same source.
Assay [16] is described as follows: inhibitors acting on PAX2 in cells – cell-based, plate reader, dry powder samples, selectivity assay for PAX8 inhibitor project, dose response (AID 743048).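 Further: HEK293 cells carrying a WT1 promoter luciferase reporter driven by expressed Pax2; potency is for inhibition of Pax2 driven reporter signal.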 Type of assay: functional.
Assay [17] can be described thus: DRD fibroblast viability loss – cell-based, non-viral oncogenic, luminescence, dose response (AID 1934). Type of assay: functional. Particulars: Homo sapiens.
Assay [18] relates to BJ. The assay can be described thus: growth inhibition of engineered Ras-driven BJ cells – cell-based, alamar blue fluorescence, cherrypicked samples, dose response (AID 2631).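 Further: confirmatory dose-response assay in RAS-dependent BJ fibroblasts engineered with TERT, LT and ST, with cytotoxicity read by fluorescence.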 Particulars: Homo sapiens. The format is functional.
A further assay has as its target Paired box protein Pax-8 (Homo sapiens, UniProt Q06710). Put plainly: PAX8 transcriptional activity inhibition in RMG-I – RMG-I cells, luciferase, cherry-pick, dose response (AID 687027).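 Further: luciferase reporter driven by Pax8 target thyroperoxidase promoter measured by SteadyGlo luminescence.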 The format is functional, cell-based.
A short description of assay [19]: IGROV1 cell killing – plate reader, dry powder samples, PAX8 inhibitor project, dose response (AID 743043). Type of assay: functional, cell-based. Particulars: IGROV-1.
A short description of assay [20]: alpha-synuclein stem-loop luciferase translation blockers – H4 neuroglioma cells, luminescence, confirmation (AID 1988). The format is functional, cell-based.
A short description of assay [21]: COV362 cell viability loss – plate reader, dry powder, SA12, cytotoxicity control for PAX8 inhibitor project, dose response (AID 743144). Type of assay: functional, cell-based.
Assay [22] in a line: luciferase reporter signal suppression in cells – H4 neuroglioma cells, luminescence, dose response (AID 1990). The format is functional, cell-based. (Reporter assays use an easily measured gene product as a stand-in for the process of interest.)
Assay [23] is described as follows: COV434 cell viability loss – plate reader, dry powder, SA7, cytotoxicity control for PAX8 inhibitor project, dose response (AID 743145). The format is functional, cell-based.
Assay [24] is described as follows: Luminescence Cell-Based Dose Response HTS to Identify Inhibitors of 5'UTR Stem-Loop Driven Prion Protein mRNA Translation in H4 Neuroglioblastoma Cells. [Related pubchem assays: 1827 (Project Summary), 1813 (Primary HTS)]. Type of assay: functional.
The nature of assay [25]: OV-90 cell viability loss – plate reader, dry powder, SA8, PAX8 inhibitor project, dose response (AID 743149). The format is functional, cell-based.
Assay [26] relates to BJ. Put plainly: BJ-TERT fibroblast viability loss – cell-based, RAS-independent, luminescence, dose response (AID 1933). As to conditions: Homo sapiens. The format is functional.
Assay [27] is described as follows: A2780 cell killing – plate reader, dry powder samples, cytotoxicity control, dose response (AID 743046). Type of assay: functional, cell-based.
Assay [28] in a line: PAX8-dependent cell viability loss – plate reader, dry powder, dose response (AID 743049). Type of assay: functional, cell-based.
The nature of assay [29]: toxicity toward immortalized ovarian surface epithelium – cell-based, plate reader, dry powder samples, cytotoxicity control for PAX8 inhibitor project, dose response (AID 743045). Type of assay: functional.
The nature of assay [30]: luciferase reporter signal reduction – luminescence, H4-C neuroglioblastoma cells, dose response (AID 2458).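 Further: H4 neuroglioblastoma cells stably carrying a luciferase reporter gene fusion.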 The format is functional, cell-based.

Sequence of Paired box protein Pax-8 (Q06710 whole entry): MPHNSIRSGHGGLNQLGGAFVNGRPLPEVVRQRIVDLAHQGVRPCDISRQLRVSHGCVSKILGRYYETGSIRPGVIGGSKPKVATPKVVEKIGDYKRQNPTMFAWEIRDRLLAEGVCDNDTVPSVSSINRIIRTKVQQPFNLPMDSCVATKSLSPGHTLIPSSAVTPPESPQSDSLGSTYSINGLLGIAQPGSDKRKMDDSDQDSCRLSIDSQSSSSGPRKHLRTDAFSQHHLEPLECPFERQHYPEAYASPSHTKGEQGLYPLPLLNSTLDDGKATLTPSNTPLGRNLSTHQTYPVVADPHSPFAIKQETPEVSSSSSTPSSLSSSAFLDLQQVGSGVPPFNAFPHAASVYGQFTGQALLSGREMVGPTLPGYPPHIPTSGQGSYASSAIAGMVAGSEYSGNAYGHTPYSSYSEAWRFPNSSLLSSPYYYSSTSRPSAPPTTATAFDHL

With `FC(F)(F)c1cccc(-c2cc(NCCCN3CCCCC3)c3ccccc3n2)c1`, the IC50 was 2.66 µM (active) in assay [1] and 6.94 µM (active) in assay [2].
`Cc1nn(-c2ccccn2)c2c1C(=O)C(Br)CC2` (stereo not drawn): the IC50 in assay [3] was 65.6 µM (active). Moreover, the CC50 in the assay on Vero was > 40 µM (active).
With `O=[N+]([O-])c1ccc2c(c1NCCc1ccccc1)=NC1(CCCCC1)[N+]=2[O-]`, the EC50 in “cells [4]” was > 29.9 µM (inactive); in [7], 393 µM (not active); in [9], 3.09 µM (active). Also, the IC50 is > 29.9 µM (inactive) in the assay “cells [5]”, > 50 µM (not active) in [6] and 8.86 µM (active) in [8].
On to `Cn1cc(C2CC(c3ccccc3)=NN2C(=O)c2ccccc2)c2ccccc21` (stereo not drawn), for which, at Transthyretin, the EC50 is > 167 µM (inactive).
For `Cc1cccc(C)c1NS(=O)(=O)c1ccc(-c2cnc(C3CC3)o2)cc1`, the AC50 in assay [10] is 12.1 µM (active); in assay [12], 4.58 µM (active); in [14] it was 0.366 µM (active); in assay [16], 22.4 µM (active); at Paired box protein Pax-8, 1.74 µM (active); in assay [19], 5.04 µM (active). Besides, the AC50 in assay [21] is 0.401 µM (active); in [23], 0.329 µM (active); in [25] it was 0.973 µM (active); in assay [27], 2.06 µM (active); in assay [28], 5.36 µM (active); in assay [29] it was 0.651 µM (active). For the same compound, the EC50 in assay [11] was 0.208 µM (active); in the assay with BJ [13], 0.751 µM (inconclusive); in the assay “cells [15]” it was 0.229 µM (active); in [17], 60.4 µM (inconclusive); in the assay with BJ [18], < 0.104 µM (active); in [20] it was < 0.1 µM (active). Moreover, the EC50 in assay [22] is < 0.1 µM (active); in assay [24] it was > 120 µM (not active); in the assay with BJ [26], 0.158 µM (active); in assay [30], 0.113 µM (active).

A word on the IC50: it is the midpoint of a concentration-inhibition curve. For orientation: CC50 means the concentration giving 50% cytotoxicity. As usually defined, the EC50 is the concentration needed to bring the measured effect to its halfway point. The term AC50 denotes the concentration giving half of the maximal activity seen.
